Positions of bridges follow the written chain, without caps; N, C: chain ends. Non-standard residues stand in square brackets, D forms with d. Residues, ends and D or L forms follow the SMILES beside them.
Experiments:
insulin = experiment: Arginine-stimulated insulin secretion in Nembutal-anesthetized rats, radioimmunoassay of blood; type: in vivo; settings: for Insulin: albino male rats, subcutaneous
Source text: (§1) The results of the assay are as follows:

growth hormone = experiment: Arginine-stimulated growth hormone secretion in Nembutal-anesthetized rats, radioimmunoassay of blood; type: in vivo; settings: for GH: albino male rats, subcutaneous
Source text: as §1

glucagon = experiment: Arginine-stimulated glucagon secretion in Nembutal-anesthetized rats, radioimmunoassay of blood; settings: for Glucagon: albino male rats, subcutaneous
Experimental: Albino male rats were administered Nembutal intraperitoneally at a dose of 50 milligrams per kilogram. Fifteen minutes later a subcutaneous injection of the test compound or physiological saline was administered. Ten minutes later 0.5 milliliters of arginine (300 milligrams per milliliter, pH 7.2) is injected into the heart. Five minutes after receipt of the arginine the rats are decapitated and blood is collected into trasylol-EDTA. An appropriate aliquot was assayed for growth hormone, insulin and glucagon by radioimmunoassay.

`C[C@H](N)C(=O)NCC(=O)N[C@H]1CSSC[C@@H](C(=O)O)NC(=O)[C@H](CO)NC(=O)[C@H]([C@@H](C)O)NC(=O)[C@H](Cc2ccccc2)NC(=O)[C@H]([C@@H](C)O)NC(=O)[C@H](CCCCN)NC(=O)[C@@H](Cc2c[nH]c3ccccc23)NC(=O)[C@H](Cc2ccccc2)NC(=O)[C@H](Cc2ccccc2)NC(=O)[C@@H](C)NC(=O)[C@H](CCCCN)NC1=O` [L-Alanylglycyl-L-cysteinyl-L-lysyl-D-alanyl-L-phenylalanyl-L-phenylalanyl-D-tryptophyl-L-lysyl-L-threonyl-L-phenylalanyl-L-threonyl-L-seryl-L-cysteinecyclic (3→14)-disulfide, triacetate] (H-AGCK[dA]FF[dW]KTFTSC-OH; disulfide 3-14) was tested. Which Insulin (insulin; dose 10 ug/kg, control 321 ± 49) did it give?
The Insulin was 215 ± 13 μU/ml.

What about the Insulin (insulin; dose 100 ug/kg, control 339 ± 45) of the same molecule?
The Insulin was 68 ± 11 μU/ml.

What about the Insulin (insulin; dose 1,000 ug/kg, control 191 ± 11) of the same molecule?
The Insulin was 42 ± 5 μU/ml.

And the “reducing secretion of insulin (summary in words)” value (insulin; summary of rat results)?
Its value is “effective agent for reducing secretion of growth hormone and insulin”.

And the GH (growth hormone; dose 10 ug/kg, control 254 ± 40)?
Its GH is 53 ± 6 ng/mL.

What about the GH (growth hormone; dose 100 ug/kg, control 526 ± 153) of the same molecule?
The GH was 117 ± 31 ng/mL.

And the GH (growth hormone; dose 1,000 ug/kg, control 312 ± 63)?
The GH was 34 ± 5 ng/mL.

What about the “reducing secretion of growth hormone (summary in words)” value (growth hormone; summary of rat results) of the same molecule?
Its value is “effective agent for reducing secretion of growth hormone”.

What about the Glucagon (glucagon; dose 10 ug/kg, control 92 ± 23, *not significant) of the same molecule?
Its Glucagon is 78 ± 7 pg/mL.

What about the Glucagon (glucagon; dose 1,000 ug/kg, control 42 ± 3) of the same molecule?
The Glucagon was 40 ± 6 pg/mL.

And the “effect on glucagon levels (summary in words)” value (glucagon; summary of rat results)?
The value was “without materially affecting glucagon levels”.

From patent US4159263A, “(D-Ala^5)-somatostatin and analogues thereof” (American Home Products Corporation, priority 1977, dated 1979)
